Results taken from patent US12227494B2, “Polymorphisms of HM30181 mesylate” (ATHENEX R&D, LLC, priority 2020, dated 2025).

Test: Polymorph screening (slurry, liquid vapor diffusion, cooling, evaporation, anti-solvent, large scale) with crystal type by XRPD
Format: physicochemical
Conditions: for Observations: large scale (200 mg)
Procedure: Slurry-based generation and/or screening for HM30181 mesylate polymorphs was performed by preparing slurries of starting material HM30181 mesylate Type A in a variety of solvents and under a variety of conditions as described below. The resulting solids were analyzed by XRPD and identified for physical state.
Generation and/or screening of HM30181 mesylate polymorphs was also performed by preparing HM30181 mesylate Type A starting material for liquid and solid vapor diffusion as described below. Resulting solids were analyzed by XRPD and identified for physical state. Liquid vapor diffusion of MTBE into NMP solution yielded HM30181 mesylate Type D (see FIG. 21). Liquid vapor diffusion of MEK into NMP or DMA solution yielded HM30181 mesylate Type D (see FIG. 21). […] Liquid vapor diffusion of 2-MeTHF into DMA or DMF solution yielded HM30181 mesylate Type E (see FIG. 22). Liquid vapor diffusion of MTBE into DMA solution yielded HM30181 mesylate Type E, with a few additional diffraction peaks, which Inventors believe are attributable to HM30181 mesylate Type I (see FIGS. 4 to 8). Liquid vapor diffusion of ACN into DMSO solution yielded HM30181 mesylate Type H (see FIG. 23). Liquid vapor diffusion of Acetone, Ethyl Acetate, or isopropyl acetate into DMA solution yielded HM30181 mesylate Type I (see FIG. 24).
Generation and/or screening of HM30181 mesylate polymorphs by cooling was carried out by treating HM30181 mesylate Type A starting material using gradual or rapid (i.e. crash) cooling as described below. The resulting solids were analyzed by XRPD and identified for physical state.
HM30181 mesylate was also subjected to evaporation methods by treating HM30181 mesylate Type A starting material as described below. The resulting solids were analyzed by XRPD and identified for physical state.
Generation and/or screening of HM30181 mesylate polymorphs by treatment with anti-solvents was performed by treating HM30181 mesylate Type A starting material as described below. The resulting solids were analyzed by XRPD and identified for physical state. Anti-solvent studies in DMSO yielded HM30181 mesylate Type C (see FIG. 26). Anti-solvent studies in N,N-dimethylacetamide with methyl t-butyl ether yielded a HM30181 mesylate Type F polymorphism (see FIG. 27). Anti-solvent addition and reverse anti-solvent addition in DMSO/EtOAc, DMA/MIBK, DMA/toluene and NMP/t-BuOH yielded primarily amorphous content and a polymorphism with some similarity to HM30181 mesylate Type J (see FIG. 28). Other anti-solvent studies in DMSO and DMF yielded a HM30181 mesylate Type K polymorphism (or possibly a mixture of types, see FIG. 29). Anti-solvent experiments in DMF/n-propanol and DMA/isopropanol yielded a HM30181 mesylate Type L polymorphism (see FIG. 30). Anti-solvent addition DMF/Toluene and DMA/t-BuOH were mostly amorphous, but also generated HM30181 mesylate Type M (see FIG. 31).
Large scale studies were performed with HM30181 mesylate Type A starting material on a 200 mg scale as described below. Solids were isolated by vacuum filtration. The wet cakes from filtration from DMA, DMF, and NMP slurries were washed with 1 mL to 2 mL methanol to remove solvents. Solids were then vacuum dried at 80° C. overnight.
Screening of polymorphisms of HM30181 mesylate can include preparation of a slurry. Typically, a slurry was prepared by suspending 5 mg to 20 mg of sample in 0.1 mL to 0.5 mL solvent in a 1.5 mL or 3.0 mL glass vial. The suspension a was stirred at target temperature (e.g. 4° C., ambient temperature, 50° C.) at 200 rpm. Solids for X-ray powder diffraction (XRPD) analysis were separated by centrifuging at 14,000 rpm for 5 minutes at ambient temperature. If no solid or gel is obtained, the slurry can be move to a fume hood for evaporation of the solvent.
In some embodiments anti-solvent addition was used. […]

COc1cc2c(cc1OC)CN(CCc1ccc(-n3nnc(-c4cc(OC)c(OC)cc4NC(=O)c4cc(=O)c5ccccc5o4)n3)cc1)CC2.CS(=O)(=O)O [HM30181 mesylate Type A, HM30181 mesylate]
XRPD (wet cake) (Crash Cooling 50° C.-->−20° C., CHCl3 4 mL, API 25.4 mg, Exp. 6007235-17-C10): No solids | XRPD (wet cake) (Crash Cooling 50° C.-->−20° C., DCM 10 mL, API 22.1 mg, Exp. 6007235-17-C13): No solids | XRPD (wet cake) (Crash Cooling 50° C.-->−20° C., DMA 4 mL, API 26.9 mg, Exp. 6007235-17-C15): Amorphous | XRPD (wet cake) (Crash Cooling 50° C.-->−20° C., DMF 4 mL, API 25.1 mg, Exp. 6007235-17-C16): Amorphous | XRPD (wet cake) (Crash Cooling 50° C.-->−20° C., EtOH 20 mL, API 5 mg, Exp. 6007235-17-C11): No solids | XRPD (wet cake) (Crash Cooling 50° C.-->−20° C., MeOH 10 mL, API 22.9 mg, Exp. 6007235-17-C9): No solids | XRPD (wet cake) (Crash Cooling 50° C.-->−20° C., NMP 4 mL, API 26.2 mg, Exp. 6007235-17-C14): Amorphous | XRPD (wet cake) (Crash cooling 50° C.-->−20° C., ACN 10 mL, API 12.6 mg, Exp. 6007235-17-C12): Type C | XRPD (wet cake) (Slow Cooling 50° C.-->4° C., ACN 10 mL, API 12.6 mg, Exp. 6007235-17-C4): Type C | XRPD (wet cake) (Slow Cooling 50° C.-->4° C., DMF 4 mL, API 25.1 mg, Exp. 6007235-17-C8): No solids | XRPD (wet cake) (Slow Cooling 50° C.-->4° C., EtOH 20 mL, API 5 mg, Exp. 6007235-17-C3): No solids | XRPD (wet cake) (Slow Cooling 50° C.-->4° C., MeOH 20 mL, API 24.7 mg, Exp. 6007235-17-C1): No solids | XRPD (wet cake) (Slow Cooling 50° C.-->4° C., NMP 4 mL, API 20.9 mg, Exp. 6007235-17-C6): No solids | Identification (anti-solvent (Table 13), solvent CHCl3, anti-solvent EtOH 10 mL, NB 6004273-06-A102): Type A | Identification (anti-solvent (Table 13), solvent CHCl3, anti-solvent MTBE 10 mL, NB 6004273-06-A103): Type A | Identification (anti-solvent (Table 13), solvent CHCl3, anti-solvent n-Heptane 10 mL, NB 6004273-06-A104): Type A | Identification (anti-solvent (Table 13), solvent DMSO, anti-solvent Toluene 10 mL, NB 6004273-06-A106): Amorphous | Identification (anti-solvent, solvent CHCl3, anti-solvent 2-MeTHF 10 mL, NB 6004273-06-A27): Type A | Identification (anti-solvent, solvent CHCl3, anti-solvent ACN 10 mL, NB 6004273-06-A30): Type A | Identification (anti-solvent, solvent CHCl3, anti-solvent Acetone 10 mL, NB 6004273-06-A22): Type A | Identification (anti-solvent, solvent CHCl3, anti-solvent CPME 10 mL, NB 6004273-06-A42): Type A | Identification (anti-solvent, solvent CHCl3, anti-solvent Cyclohexane 10 mL, NB 6004273-06-A35): Type A | Identification (anti-solvent, solvent CHCl3, anti-solvent DCM 10 mL, NB 6004273-06-A31): Type A | Identification (anti-solvent, solvent CHCl3, anti-solvent EtOAc 10 mL, NB 6004273-06-A24): Type A | Identification (anti-solvent, solvent CHCl3, anti-solvent Ethanol 10 mL, NB 6004273-06-A20): Type A | Identification (anti-solvent, solvent CHCl3, anti-solvent Ethyl formate 10 mL, NB 6004273-06-A40): Type A | Identification (anti-solvent, solvent CHCl3, anti-solvent IPA 10 mL, NB 6004273-06-A21): Type A | Identification (anti-solvent, solvent CHCl3, anti-solvent MEK 10 mL, NB 6004273-06-A36): Type A | Identification (anti-solvent, solvent CHCl3, anti-solvent MIBK 10 mL, NB 6004273-06-A23): Type A | Identification (anti-solvent, solvent CHCl3, anti-solvent MTBE 10 mL, NB 6004273-06-A29): Type A | Identification (anti-solvent, solvent CHCl3, anti-solvent MeOAc 10 mL, NB 6004273-06-A34): Type A | Identification (anti-solvent, solvent CHCl3, anti-solvent THF 10 mL, NB 6004273-06-A26): Type A | Identification (anti-solvent, solvent CHCl3, anti-solvent Toluene 10 mL, NB 6004273-06-A32): Type A | Identification (anti-solvent, solvent CHCl3, anti-solvent iBuOAc 10 mL, NB 6004273-06-A41): Type A | Identification (anti-solvent, solvent CHCl3, anti-solvent iPrOAc 10 mL, NB 6004273-06-A25): Type A | Identification (anti-solvent, solvent CHCl3, anti-solvent n-Heptane 10 mL, NB 6004273-06-A33): Type A | Identification (anti-solvent, solvent CHCl3, anti-solvent n-Propanol 10 mL, NB 6004273-06-A38): Type A | Identification (anti-solvent, solvent CHCl3, anti-solvent n-Propyl acetate 10 mL, NB 6004273-06-A39): Type A | Identification (anti-solvent, solvent CHCl3, anti-solvent t-Butanol 10 mL, NB 6004273-06-A37): Type A | Identification (anti-solvent, solvent DMA, anti-solvent t-Butanol 20 mL, NB 6004273-06-A97): Type M | Identification (anti-solvent, solvent DMF, anti-solvent EtOAc 10 mL, NB 6004273-06-A47): Type A | Identification (anti-solvent, solvent DMF, anti-solvent EtOH 20 mL, NB 6004273-06-A43): Amorphous | Identification (anti-solvent, solvent DMF, anti-solvent IPA 10 mL, NB 6004273-06-A44): Type K | Identification (anti-solvent, solvent DMF, anti-solvent MIBK 10 mL, NB 6004273-06-A46): Amorphous | Identification (anti-solvent, solvent DMF, anti-solvent MTBE 10 mL, NB 6004273-06-A52): Type A | Identification (anti-solvent, solvent DMF, anti-solvent Toluene 10 mL, NB 6004273-06-A56): Type M | Identification (anti-solvent, solvent DMF, anti-solvent n-Propyl acetate 10 mL, NB 6004273-06-A61): Type A | Identification (anti-solvent, solvent DMSO, anti-solvent 2-MeTHF 10 mL, NB 6004273-06-A8): Amorphous | Identification (anti-solvent, solvent DMSO, anti-solvent ACN 20 mL, NB 6004273-06-A11): Type C | Identification (anti-solvent, solvent DMSO, anti-solvent Acetone 10 mL, NB 6004273-06-A3): Type K | Identification (anti-solvent, solvent DMSO, anti-solvent CHCl3 20 mL, NB 6004273-06-A13): Type K | Identification (anti-solvent, solvent DMSO, anti-solvent EtOH 20 mL, NB 6004273-06-A1): Type K | Identification (anti-solvent, solvent DMSO, anti-solvent MIBK 10 mL, NB 6004273-06-A4): Type K | Identification (anti-solvent, solvent DMSO, anti-solvent MTBE 20 mL, NB 6004273-06-A10): Amorphous | Identification (anti-solvent, solvent DMSO, anti-solvent Toluene 10 mL, NB 6004273-06-A14): Amorphous | Identification (anti-solvent, solvent DMSO, anti-solvent n-Propanol 10 mL, NB 6004273-06-A18): Type K | Identification (anti-solvent, solvent DMSO, anti-solvent n-Propyl acetate 10 mL, NB 6004273-06-A19): Type K | Identification (anti-solvent, solvent DMSO, anti-solvent t-Butanol 10 mL, NB 6004273-06-A17): Type K | Identification (anti-solvent, solvent NMP, anti-solvent 1,4-Dioxane 20 mL, NB 6004273-06-A70): Type A | Identification (anti-solvent, solvent NMP, anti-solvent MEK 20 mL, NB 6004273-06-A77): Amorphous | Observations (Anti-solvent addition, DMA 20 mL, 5 mg/mL, anti-solvent t-BuOH 200 mL, Desired Type M, NB 6004273-10-M): Amorphous | Observations (Anti-solvent addition, DMF 20 mL, 5 mg/mL, anti-solvent Toluene 300 mL, Desired Type M, NB 6004273-10-M1): Amorphous | Observations (Anti-solvent addition, DMF 20 mL, 5 mg/mL, anti-solvent n-propanol 200 mL, Desired Type L, NB 6004273-10-L): Amorphous | Observations (Anti-solvent addition, DMSO 10 mL, 60 mg/mL, anti-solvent MIBK 200 mL, Desired Type K, NB 6004273-10-K): Amorphous | Observations (Slurry at 50° C., DMF 0.2 mL, 576 mg/mL, Desired Type G, NB 6004273-10-G): Type F | Observations (Slurry at 100° C. (for 2 days), DMF 0.2 mL, 595 mg/mL, Desired Type G, NB 6004273-10-F-100C): Type F | Observations (Slurry at 150° C. (for 5 d), DMF 0.2 mL, 595 mg/mL, Desired Type G, NB 6004273-10-F-150C): Decomposition | Observations (Slurry at ambient temperature, DMA 0.2 mL, 576 mg/mL, Desired Type E, NB 6004273-10-E): Type E | Observations (Slurry at ambient temperature, DMF 0.2 mL, 595 mg/mL, Desired Type F, NB 6004273-10-F): Type A | Observations (Slurry at ambient temperature, MeCN 0.2 mL, 545 mg/mL, Desired Type C, NB 6004273-10-C): Type C | Observations (Slurry at ambient temperature, MeOH 0.2 mL, 480 mg/mL, Desired Type B, NB 6004273-10-B): Type N | Observations (Slurry at ambient temperature, NMP 0.2 mL, 550 mg/mL, Desired Type D, NB 6004273-10-D): Amorphous
